Results published in patent US20230149554A1, “TARGETED DEGRADATION OF THE ONCOGENIC MICRORNA 17-92 CLUSTER BY STRUCTURE-TARGETING LIGANDS” (University of Florida Research Foundation, Incorporated, priority 2020, published 2023).

Columns and labels:
plasmid DNA = settings: 100 nM
Description: In vitro Bleomycin cleavage of DNA plasmid. […] Another equivalent of (NH4)2Fe(SO4)2.6H2O was added after 30 min and 60 min respectively. The mixture was loaded on 1% agarose with 6× loading dye and stained with ethidium bromide. Bands were quantified using ImageJ image analysis software.

[1] = target: bulges 5′G_U/3′CUA, 5′GGU/3′C_A and 5′GAU/3′C_A; settings: previous study, cited from earlier work
pri-miR-17-92 cluster [2] = experiment: RT-qPCR of pri-, pre- and mature miRNAs in DU-145 cells; assay type: cell-based, human; settings: DU-145, treatment with 7
Description: RT-qPCR in DU145, MDA-MB-231, and WT-9-12 cells. DU145 cells were seeded into 12-well plates at ˜50% confluency (≈200,000 cells/well) and allowed to adhere for 12 h. After adhering, the cells were treated with compounds 2, 5, 6, or 7 (10, 100, and 500 nM) for 24 h. Total RNA was then harvested using a Zymo-Quick RNA Mini prep kit (Zymo Research) with DNase treatment according in the manufacturers protocol. Reverse transcription (RT) for mature miRNAs was done using the miScript II RT kit (Qiagen) with 200 ng of total RNA. To measure precursor and mRNA levels, RT was done using qScript (Quanta Bio) according to the manufacturers protocol on 1000 ng of total RNA. RT-qPCR was carried out on an Applied Biosystems 7900HT cycler under standard conditions (2 step PCR; 60° C. annealing/elongation, 95° C. melt) using the Power Sybr Master Mix (Applied Biosystems). […] Total RNA was extracted in a similar manner and subjected to RT-qPCR as described above. RT for precursor and mRNAs in MDA-MB-231 cells was done using the High Flex buffer in the miScript II RT kit.
Absolute quantification of pri-, pre-, and mature miRNAs. Transcripts of pre-miR-17, pre-miR-18a, and the corresponding 5p mature sequences were transcribed in vitro and purified as described above. Precursor miRNAs (1×10^14 copies) were reverse transcribed using QScript RT (Quanta bio) in a total volume of 40 μL. […]

pri-miR-17-92 cluster [3] = experiment: RT-qPCR of pri-, pre- and mature miRNAs in MDA-MB-231 cells; assay type: cell-based, human
Description: Absolute quantification of pri-, pre-, and mature miRNAs. Transcripts of pre-miR-17, pre-miR-18a, and the corresponding 5p mature sequences were transcribed in vitro and purified as described above. Precursor miRNAs (1×10^14 copies) were reverse transcribed using QScript RT (Quanta bio) in a total volume of 40 μL. Mature miRNAs (1×10^14 copies) were reverse transcribed using the miScript II RT Kit (Qiagen) in a total volume of 40 μL reaction. Serial dilutions of the RT reactions (1:10) were used to create a standard curve of copy number versus Ct which was used to calculate copy numbers of each transcript in DU-145 and MDA-MB-231 cells.

Cellular uptake analysis = assay type: in vitro ADME, human; settings: 5 μM, 24 h, DU-145 and MDA-MB-231
Description: Cellular uptake analysis. DU145 and MDA-MB-231 cells were seeded into a 96-well white clear bottom plate at 10,000 cells/well and allowed to adhere overnight. Once adhered, the cells were grown to ˜50% confluency and then treated with 2, 5, or 7 at 5 μM for 24 h while also leaving untreated wells for generation of a standard curve. This concentration was chosen to allow for adequate signal above noise. After 24 h, cells were lysed in 100 μL of RNA lysis buffer (Zymo Research) for 5 min. Compound 2, 5, or 7 were spiked into untreated samples at 100, 10, 1, 0.1, and 0.01 nM to create a standard curve of compound fluorescence. Using a Biotek FLX-800 fluorescence plate reader (excitation: 360/340; emission 460/440; sensitivity=90) the fluorescence of 2, 5, and 7 was measured. Concentrations were determined by extrapolating from the standard curves mentioned above.

Structure (SMILES): Cc1c(N)nc([C@H](CC(N)=O)NC[C@H](N)C(N)=O)nc1C(=O)N[C@H](C(=O)N[C@H](C)[C@@H](O)[C@H](C)C(=O)N[C@H](C(=O)NCCc1nc(-c2nc(C(=O)NCCCNCCCCN)cs2)cs1)[C@@H](C)O)[C@@H](O[C@@H]1O[C@@H](CO)[C@@H](O)[C@H](O)[C@@H]1O[C@@H]1O[C@H](CO)[C@@H](O)[C@H](OC(N)=O)[C@@H]1O)c1cnc[nH]1 [Bleomycin A5]
- cleavage of plasmid DNA (plasmid DNA): significantly cleaved DNA

Structure (SMILES): CN1CCN(c2ccc(-c3ccc4nc(-c5cc(C(C)(C)C)c(OCCCC(=O)NCCCN=[N+]=[N-])c(C(C)(C)C)c5)[nH]c4c3)cc2)CC1 [Compound 1]
- Kd ([1]; bulges of pre-miR-17, -18a, -20a, read-out: Kd's of 1 for the three bulges): 30 to 40 µM
- binding of 1 to RNAs with bulges mutated to GC or AU base pairs [1]: No binding was observed

Structure (SMILES): CCCN(CC(=O)N(CCC)CC(=O)N(CCC)CC(=O)N(CC(=O)NCCOCCOCCOCCOc1ccc(/C=C2\SC(Nc3ccccc3)=C(C(=O)OCC)C2=O)cc1O)Cc1cn(CCCNC(=O)CCCOc2c(C(C)(C)C)cc(-c3nc4cc(-c5ccc(N6CCN(C)CC6)cc5)ccc4[nH]3)cc2C(C)(C)C)nn1)C(=O)CN(Cc1cn(CCCNC(=O)CCCOc2c(C(C)(C)C)cc(-c3nc4cc(-c5ccc(N6CCN(C)CC6)cc5)ccc4[nH]3)cc2C(C)(C)C)nn1)C(C)=O [Compound 7]
- mature and pre-miRNA levels of the pre-miRNAs that bind 2 (pri-miR-17-92 cluster [2]): reduced levels
- pri-miR-17/92 levels (pri-miR-17-92 cluster [2]): No effect
- decrease of pre-miR-17 levels (pri-miR-17-92 cluster [3]; MDA-MB-231, 7 at 500 nM): 31(±3) %
- decrease of pre-miR-18a levels (pri-miR-17-92 cluster [3]; MDA-MB-231, 7 at 500 nM): 19(±4) %
- decrease of pre-miR-20a levels (pri-miR-17-92 cluster [3]; MDA-MB-231, 7 at 500 nM): 36(±3) %
- pri-miR-17/92 levels (pri-miR-17-92 cluster [3]; MDA-MB-231, 7 at 500 nM): unchanged
- levels of mature miR-17, miR-18a and miR-20a (pri-miR-17-92 cluster [3]; MDA-MB-231, treatment with 7): reduced the levels of mature miR-17, miR-18a, and miR-20a dose dependently
- levels of the other three mature miRNAs in the cluster (pri-miR-17-92 cluster [3]; MDA-MB-231, treatment with 7): no effect
- cellular uptake (Cellular uptake analysis): taken up to a similar extent as 2
